Experimental data published in PubChem BioAssay (NCI).
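Each compound was tested at five concentrations against cells in 96-well plates for 48 hours. GI50: concentration for 50% inhibition of growth. Definition used: TGI = concentration required for complete inhibition of growth.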

Columns and labels:
Test in all cases: inhibition of tumour cell growth, NCI panel, 48 h
[1] = system: K-562 leukemia
[2] = system: NCI-H522 lung
[3] = system: SNB-75 CNS
[4] = system: OVCAR-5 ovarian
[5] = system: SK-MEL-5 melanoma
[6] = system: DU-145 prostate
[7] = system: MALME-3M melanoma
[8] = system: SNB-19 CNS
[9] = system: A498 renal
[10] = system: LOX IMVI melanoma

Compound	TGI [1] [µM]	TGI [2] [µM]	TGI [3] [µM]	TGI [4] [µM]	TGI [5] [µM]	TGI [6] [µM]	TGI [7] [µM]	TGI [8] [µM]	GI50 [1] [nM]	GI50 [2] [µM]	GI50 [3] [µM]	GI50 [9] [µM]	TGI [9] [µM]	GI50 [4] [µM]	GI50 [5] [µM]	GI50 [6] [µM]	GI50 [7] [µM]	TGI [10] [µM]	GI50 [8] [µM]
Cc1nnc2sc(-c3ccc(N)cc3)nn12	> 100	> 100	95.7	> 100	> 100	> 100	> 100	> 100	–	–	–	–	–	–	–	–	–	–	–
CCOC(=O)C1=C(C)N2CCCOC2(C)C(C(=O)OC)C1c1cccc([N+](=O)[O-])c1 (centres undefined)	> 100	–	75.8	–	> 100	–	–	> 100	–	–	–	–	–	–	–	–	–	–	–
CC(=O)O[C@H]1CC[C@]2(C)[C@H]3C(=O)C=C4[C@@H]5C[C@](C)(C(=O)N6CCCNCC6)CC[C@]5(C)CC[C@@]4(C)[C@]3(C)CC[C@H]2C1(C)C	4.27	3.42	2.64	2.96	4.42	3.15	3.47	–	1270	1.68	1.34	1.71	3.1	1.6	2.1	1.71	1.8	–	–
O=[N+]([O-])/C=C/c1cccc(F)c1	–	26.9	28.1	–	18.6	21.6	32.5	29.7	–	–	–	–	27.4	–	–	–	–	> 100	–
COc1cc2c(cc1OC)C(C1(O)CCCCC1)NCC2 (centres undefined)	> 100	–	> 100	> 100	> 100	–	> 100	–	–	–	–	–	–	–	–	–	–	> 100	–
C=C(/C=C/C=C(/CCC=C(C)C)COC(C)=O)[C@@H]1CC[C@]2([C@H](CCCO)/C(=C(/C)C=O)CC[C@]2(C)O)[C@@H]1O	30.2	32.6	–	53.7	–	–	15.7	29.7	–	–	–	–	–	–	–	–	–	27.4	–
Cc1c(Cl)c(S(N)(=O)=O)cc(S(N)(=O)=O)c1NC(=O)c1ccc(Cl)cc1	> 100	> 100	> 100	> 100	> 100	> 100	> 100	> 100	–	–	–	–	> 100	–	–	–	–	> 100	–
NC(Cc1ccc2oc3cc(=O)c4ccccc4c-3nc2c1)C(=O)O (centres undefined)	77.1	77.7	29.7	> 87.6	11.5	32	17.6	> 97.7	–	–	–	–	> 84.6	–	–	–	–	44.1	–
Nc1nc(Cl)cc(NCCCCO)n1	> 100	–	> 100	> 100	> 100	–	> 100	> 100	–	–	–	–	> 100	–	–	–	–	> 100	–
NC(=O)c1nnc2cc(F)c(F)cc2c1N	> 100	56.8	31.8	> 100	> 100	> 100	> 100	> 100	–	–	–	–	> 100	–	–	–	–	> 100	–
N=C(N)SC1c2ccccc2-c2cc([N+](=O)[O-])ccc21 (centres undefined)	22	6.47	5.7	26.7	10.6	15.9	16.9	14.3	–	–	–	–	14.6	–	–	–	–	22.1	–
C#CCCCCC#CC1CCCC1C1=CC(=O)c2ccccc21 (centres undefined)	8.14	22	17.7	23.7	20.2	–	20.1	28.8	–	–	–	–	28.3	–	–	–	–	13.9	–
CN[C@@H]1[C@H](O)[C@H](NC)[C@H]2O[C@@]3(O)C(=O)C[C@@H](C)O[C@H]3O[C@@H]2[C@H]1O	> 100	> 100	> 100	> 100	> 100	> 100	> 100	> 100	–	–	–	–	> 100	–	–	–	–	> 100	–
CCCNCC(O)/C=C/[Si](C)(C)C (centres undefined) (tested in a mixture with another compound)	> 100	> 100	> 100	> 100	> 100	–	> 100	> 100	–	–	–	–	> 100	–	–	–	–	> 100	–
Cc1c2ccccc2nc2[nH]c3ccncc3c12	> 100	> 100	> 100	95	95	> 100	66.6	> 100	–	–	–	–	> 100	–	–	–	–	45.4	–
C[n+]1ccccc1/C=C/c1ccc2c(c1)OCO2	> 10	> 10	–	> 10	> 10	> 10	> 10	> 10	–	–	–	–	> 10	–	–	–	–	> 10	–
CC1(C)[C@@H]2C[C@H]1C(Cc1ccccc1C[C@H]1c3cc(-c4ccccn4)ncc3[C@H]3C[C@@H]1C3(C)C)c1cc(-c3ccccn3)ncc12 (some centres undefined)	> 100	> 22	> 100	> 100	28.1	> 37.9	> 100	> 100	–	–	–	–	4.89	–	–	–	–	1.48	–
CCCCCCc1ccc(O)cc1O	> 100	> 100	> 100	> 100	> 79.1	–	> 100	> 100	–	–	–	–	> 100	–	–	–	–	> 100	–
Oc1ccc2ccccc2c1N=Nc1ccc(N=Nc2ccccc2)cc1	> 100	> 100	> 100	> 100	> 100	> 100	> 100	> 100	–	–	–	–	> 100	–	–	–	–	> 100	–
O=S(=O)(O)c1cc(O)c2c(O)c(N=Nc3ccc(/C=C/c4ccc(N=Nc5c(S(=O)(=O)O)cc6cc(S(=O)(=O)O)cc(O)c6c5O)cc4S(=O)(=O)O)c(S(=O)(=O)O)c3)c(S(=O)(=O)O)cc2c1	> 100	> 100	> 100	> 100	> 100	–	> 100	> 100	–	–	–	–	> 100	–	–	–	–	> 100	–
CCOC(=O)C1=C(C)N(Cc2ccc(Cl)cc2Cl)C2(O)C(OC)CC(=O)C3C(=O)N(c4ccccc4)C(=O)C132 (centres undefined)	3.87	7.56	–	28.5	16.2	2.75	23.9	11.8	–	–	–	–	22.7	–	–	–	–	2.23	–
Cc1ccc(NCCN(C)CC(C)O)c2c(=O)c3ccc(Cl)cc3sc12 (centres undefined)	–	–	> 100	> 100	3.01	> 100	3.54	> 100	–	–	6.65	2.31	8.37	3	1.65	3.75	1.78	–	4.62
CN(C)CCNc1ccc2nnn3c4ccc(Cl)cc4c(=O)c1c23	22.7	17.5	9.78	13.3	10.6	26.2	17	26.7	–	–	–	–	11.3	–	–	–	–	9.66	–
COc1cc2c(cc1O)CCN[C@@]21CS[C@H]2c3c(OC(C)=O)c(C)c4c(c3C(COC1=O)N1C2C2c3c(cc(C)c(OC)c3O)CC([C@@H]1O)N2C)OCO4 (some centres undefined)	1.54e-05	0.00273	–	–	–	–	–	–	< 0.001	0.000953	–	–	–	–	–	0.00462	–	–	–
